# Source: patent US5703056A, “Non-invasive imaging of gene transfer” (priority 1995, dated 1997)
# Where two headings read alike, the source gives them in different places.
# Experiments:
# physchem = format: physicochemical; settings: octanol/water
# Description: It is known that brain capillary permeability for many compounds is related to their octanol/water partition coefficient (P) and molecular weight. [[…]. Med. […] [Dischino, […]., and […]. Nucl. […] […]. Drug transfer across the blood brain barrier. In: Topics in Pharmaceutical Sciences. Ed.: Breimer, D. D., and […]. […] […]., and Rapoport, S. I. In: Handbook of Physiology. The Cardiovascular System. Microcirculation. Bethesda, Md.: Am. Physiol. Soc., sect. 2, Vol. IV, […]. 969-1000, 1984; […]. In: Implications of Blood-Brain Barrier and Its Manipulation. Basic Science Aspects. Ed. by Neuwelt, E., New York: Plenum, Vol. 1, […]. 132-55, 1988] […] [Xu, […]., Knaus, E. E., and Wiebe, L. I. In: Advances in Radiopharmacology. […]., Snowdon, G. M., Boniface, G. R., Univ. of Wollongong Printing Service, Wollongong, Australia, pp. 283-298, 1990] […] […]).
# [1] = Calculated permeability surface area product (PS) of the cerebral capillaries; design: unit not given here; settings: for PS*: calculated from measured log P and MW: log(PS)=5.2+log(P·Dm); for PS+: calculated from published log P and MW: log(PS)=5.2+log(P·Dm)
# Description: Passage of the nucleosides across the blood brain barrier (BBB) is an important factor to consider in the design of radiolabelled 2'-fluoro-nucleoside analogues for imaging HSV1-TK expression in the brain. […] It is known that brain capillary permeability for many compounds is related to their octanol/water partition coefficient (P) and molecular weight. [Levin, V. N. J. Med. Chem., 23: 682-4, 1980] Several authors have described a relationship between the brain capillary permeability and log P or log P·Dm, where Dm is a measure of diffusibility. […] [Dischino, D. D., Welch, M. J., Kilbourn, M. N., and Raichle, M. E., J. Nucl. Med., 24: 1030-8, 1983] […] Fenstermacher, J. D. Drug transfer across the blood brain barrier. In: Topics in Pharmaceutical Sciences. Ed.: Breimer, D. D., and Speiser, P. Amsterdam: Elsevier, pp. 143-54, 1983; Fenstermacher, J. D., and Rapoport, S. I. In: Handbook of Physiology. The Cardiovascular System. Microcirculation. Bethesda, Md.: Am. Physiol. Soc., sect. 2, Vol. IV, pt. 2, chapt. 21, p. 969-1000, 1984; Fenstermacher, J. D. In: Implications of Blood-Brain Barrier and Its Manipulation. Basic Science Aspects. Ed. by Neuwelt, E., New York: Plenum, Vol. 1, Chapt. 6, pp. 132-55, 1988]
# [2] = cited from earlier work; for lipophilicity and blood-brain barrier permeability compared with FIAU: compared with FIAU (FAIU [sic]), Iwashina et al. 1988
# HSV1-TK [3] = molecular target: T1, HSV1-TK (Human alphaherpesvirus 1 strain 17, UniProt P0DTH5); experiment: Accumulation of radiolabelled marker substrates in RG2TK+ transduced and RG2 wild-type cells, normalized to TdR; format: cell-based, herpes simplex virus
# T1 sequence (P0DTH5 whole entry): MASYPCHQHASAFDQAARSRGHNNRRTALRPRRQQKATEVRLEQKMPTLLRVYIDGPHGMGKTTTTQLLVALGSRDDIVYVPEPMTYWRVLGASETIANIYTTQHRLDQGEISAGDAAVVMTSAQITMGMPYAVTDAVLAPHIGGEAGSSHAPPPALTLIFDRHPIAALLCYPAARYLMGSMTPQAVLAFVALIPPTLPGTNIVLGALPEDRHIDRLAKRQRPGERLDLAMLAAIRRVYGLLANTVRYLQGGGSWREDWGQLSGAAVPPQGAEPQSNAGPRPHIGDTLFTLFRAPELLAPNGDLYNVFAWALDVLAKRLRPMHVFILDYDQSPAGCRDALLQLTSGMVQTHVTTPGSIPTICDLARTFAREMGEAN
# Description: Source of radiolabelled "marker substrates". […] No carrier-added 5-[^123 I]-deoxyuridine (IUdR) was prepared by reacting 2-deoxyuridine (UdR) with carrier-free ^123 I-labelled sodium iodide in an iodogen coated reaction vial.
# Comparison of "marker substrates" for identifying HSV1-tk gene expression in tissue culture. […] Each of these substrates were developed for or used as an anti-viral agent; they are phosphorylated by HSV1-TK and can be radiolabelled for noninvasive imaging.
# Wild-type (nontransduced) RG2 cells were studied as a reference control. […] The cells were dislodged from the Petri dishes with a soft scraper, poured into 15 ml conical tubes, centrifuged and the medium aspirated. The tubes were cut to facilitate removing cells; they were blotted, placed in pre-weighed vials, weighed and prepared for counting. Samples were assayed for ^3 H- and ^14 C-radioactivity using a Packard B1600 TriCarb beta spectrometer using dual-channel and external standard splash and quench correction techniques. The medium was also counted before and following incubation. The data was expressed as a harvested cell-to-medium concentration ratio (dpm/g cells.div.dpm/ml medium).
# (§1) Data analysis. […] These two related measures are useful to evaluate the intensity of the images (e.g., high "sensitivity") and the ability to differentiate between HSV1-TK and endogenous-TK in the images (e.g., high "selectivity"). The "selectivity" measure is not interpreted as a relative sensitivity (i.e., a value of 1 indicating equal sensitivity) of the substrate to HSV1-TK vs. endogenous-TK. […] They are intended for the direct comparison of substrates only.
# HSV1-TK [4] = molecular target: T1, HSV1-TK; experiment: Single 120 minute paired accumulation of FIAU and IUdR by RG2TK+ and RG2 cells; format: cell-based, herpes simplex virus; settings: Data from FIG. 6A
# Description: The processing of cells and incubation medium was the same as that described above. A portion of the harvested cells was also processed for acid-insoluble (10% TCA) radioactivity. Decay corrected ^123 I-radioactivity was measured in a Packard AutoGamma 5550 Spectrometer. Samples were stored for 1 week to allow for ^123 I decay (12 half lives), and recounted afterwards in the Packard B1600 TriCarb beta spectrometer to determine ^3 H- and ^14 C-radioactivity.
# All radioactivity measurements were expressed as a percent of administered dose per gram of tissue or per unit volume of fluid as described above.
# as §1
# RG2TK+ and RG2 tumors = experiment: Tissue sampling of FIAU- and IUdR-derived radioactivity in i.c. and s.c. RG2TK+ and RG2 tumors; format: in vivo, rat; settings: 24 h; for Sensitivity* (uptake in RG2TK+ tumor - uptake in RG2 tumor)/(HSV1TK mRNA/S28 RNA IOD in RG2TK+ cells): percent dose per gram
# Description: Animal preparation and tumor inoculation Two male Fisher 344 rats weighing 250±20 g were anesthetized with a gas mixture consisting of 2% Isoflurane, 70% nitrous oxide and 30% oxygen. A 2% lidocaine gel was applied to the ears and the head was fixed with a stereotaxic device. After midline scalp incision, a burr hole was made through the skull 1 mm posterior and 3 mm lateral to the bregma. The tumor cell suspensions were aspirated into a 50 μl gas tight Hamilton syringe (Ga. 25) and attached to a stereotaxic device. The syringe needle was then inserted 6 mm deep into the caudate nucleus and the cell suspension (10^5 cells in 10 μl) was slowly injected over 2 minutes. RG2TK+ cells were injected into the left hemisphere, and RG2 cells were injected into the right hemisphere. Bone wax was applied to cover the skull defect and the scalp was closed with 4.0 silk suture. Subcutaneous inoculations (10^6 cells in 50 μl) were also performed (RG2TK+ cells into the left flank and RG2 cells into the right flank). After the procedure, the animals were marked and placed in standard cages with water and Rodent LabChow #5001 (Purina Mills, Inc.) ad libitum. Comparison of different "marker substrates" for identifying HSV1-TK expression in animals After 10 days of tumor growth, both animals received i.v. injections of [^123 I]-IUdR (400 uCi) and [^14 C]-FIAU (10 uCi). Radioactivity was allowed to clear from the body over 24 hours to reduce tissue background activity, predominantly due to radiolabelled iodide, the major metabolite of [^123 I]-IUdR. [Tjuvajev, J. G., Muraki, A., Ginos, J., Berk, J., Koutcher, J., Ballon, D., Beattie, B., Finn, R., and Biasberg, R., J. Nucl. Med., 34: 1152-62, 1993; Tjuvajev, J. G., Macapinlac, H. A., Daghighian, F., Scott, A. M., ginos, J. Z., Finn, R. D., Kothari, P., Desai, R., Zhang, Z., Beattie, B., Graham, M., Larson, S., and Blasberg, R. G., J. Nucl. Med., 35: 1407-17, 1994] The rats were killed at 24 hours under anesthesia; samples of tumor and adjacent tissue were disected and weighed, blood and plasma were obtained, and radioactivity was measured. Decay corrected ^123 I-radioactivity was assayed in a Packard AutoGamma 5550 Spectrometer; samples were stored in a refrigerator for 1 week to allow for ^123 I decay (>12 half lives) and ^14 C-radioactivity was measured in a Packard B1600 TriCarb beta spectrometer using external standard quench correction. Sample radioactivity was expressed as a percent of administered dose per gram of tissue of per unit volume of fluid.
# [5] = log P values published by Xu, et al.
Compound,logP (physchem),PS* [1],PS+ [1],other results
O=c1[nH]c(=O)n([C@H]2C[C@H](O)[C@@H](CO)O2)cc1F [5-FUdR],-1.52,0.03,0.03,Log P+ ([2]; octanol/water): -1.51
O=c1[nH]c(=O)n([C@H]2C[C@H](O)[C@@H](CO)O2)cc1/C=C/I [5-IVdU],,10.29,,Log P* (physchem): 1.10
CC(C)(N)C(=O)O [AIB],-2.48,,0.00052,
O=C(O)CN(CCN(CC(=O)O)CC(=O)O)CCN(CC(=O)O)CC(=O)O [DTPA],-3.89,,0.00009,
"CCc1cn([C@@H]2O[C@H](CO)[C@@H](O)[C@@H]2F)c(=O)[nH]c1=O [FEAU, 2'-fluoro-5-ethyl-1-β-D-arabinofuranosyl-uracil]",,,0.31,lipophilicity and blood-brain barrier permeability compared with FIAU [2]: higher lipophilicity and better permeability through the blood-brain barrier
"CCc1cn([C@@H]2O[C@H](CO)[C@@H](O)[C@H]2F)c(=O)[nH]c1=O [FERU, 5-ethyl-2'-fluoro-1-β-D-ribofuranosyl-uracil]",,,,lipophilicity and blood-brain barrier permeability compared with FIAU [2]: higher lipophilicity and better permeability through the blood-brain barrier
"O=c1[nH]c(=O)n([C@@H]2O[C@H](CO)[C@@H](O)[C@@H]2F)cc1F [FFAU, 2'-fluoro-5-fluoro-1-β-D-arabinofuranosyl-uracil]",-1.09,0.08,,
O=c1[nH]c(=O)n([C@@H]2O[C@H](CO)[C@@H](O)[C@H]2F)cc1F [FFRU],,0.02,,
"O=c1[nH]c(=O)n([C@@H]2O[C@H](CO)[C@@H](O)[C@H]2F)cc1I [FIRU, 2'-fluoro-5-iodo-1-β-D-ribofuranosyl-uracil]",,0.45,,
"O=c1[nH]c(=O)n([C@@H]2O[C@H](CO)[C@@H](O)[C@@H]2F)cc1C=CI [FIVAU, 2'-fluoro-5-iodovinyl-1-β-D-arabinofuranosyl-uracil]",,,,lipophilicity and blood-brain barrier permeability compared with FIAU [2]: higher lipophilicity and better permeability through the blood-brain barrier
"O=c1[nH]c(=O)n([C@@H]2O[C@H](CO)[C@@H](O)[C@H]2F)cc1C=CI [FIVRU, 2'-fluoro-5-iodovinyl-1-β-D-ribofuranosyl-uracil]",1.21,13.03,,lipophilicity and blood-brain barrier permeability compared with FIAU [2]: higher lipophilicity and better permeability through the blood-brain barrier
"O=c1[nH]c(=O)n([C@H]2C[C@H](O)[C@@H](CO)O2)cc1I [IUdR, 5-iodo-2'-deoxy-uridine]",-0.089,0.11,0.14,"Selectivity+ Sensitivity*/(substrate/TdR) for RG2 (HSV1-TK [3]; Data from FIG. 5): 0.006; Sensitivity* Δ(substrate/TdR)/Δ(HSV1TK mRNA/S28 RNA IOD) (HSV1-TK [3]; Data from FIG. 5): 0.0029; accumulation in bulk RG2TK+ cells relative to wild-type RG2 cells (HSV1-TK [3]; normalized to TdR, FIGS. 4 and 5B): 1.2 fold; Selectivity+ Sensitivity*/(substrate/TdR) for RG2 (HSV1-TK [4]): 0.002; Sensitivity* Δ(substrate/TdR)/Δ(HSV1TK mRNA/S28 RNA IOD) (HSV1-TK [4]): 0.0011; Selectivity+ Sensitivity*/(uptake in RG2 tumor) (RG2TK+ and RG2 tumors; RG2TK+/RG2 i.c. tumors): 0.009; Sensitivity* (uptake in RG2TK+ tumor - uptake in RG2 tumor)/(HSV1TK mRNA/S28 RNA IOD in RG2TK+ cells) (RG2TK+ and RG2 tumors; RG2TK+/RG2 i.c. tumors): 0.0001; Selectivity+ Sensitivity*/(uptake in RG2 tumor) (RG2TK+ and RG2 tumors; RG2TK+/RG2 s.c. tumors): 0.020; Sensitivity* (uptake in RG2TK+ tumor - uptake in RG2 tumor)/(HSV1TK mRNA/S28 RNA IOD in RG2TK+ cells) (RG2TK+ and RG2 tumors; RG2TK+/RG2 s.c. tumors): 0.0007; Log P+ [2, 5]: -0.76"
"Cc1cn([C@H]2C[C@H](O)[C@@H](CO)O2)c(=O)[nH]c1=O [TdR, thymidine]",-0.8,,,Log P+ ([2]; octanol/water): -1.12
"O=c1ccn([C@H]2C[C@H](O)[C@@H](CO)O2)c(=O)[nH]1 [UdR, 2-deoxyuridine]",-0.131,0.05,0.03,"Log P+ [2, 5]: -1.48"
